Results taken from BindingDB's records for patent US20240383915 (Genentech, 2024).

Molecular target: GTPase KRas (Homo sapiens, UniProt P01116)
Experiment: KRAS Biochemical Assay
Experimental: KRAS Biochemical Assay—BODIPY-GDP Exchange TR-FRET. Biochemical compound potencies were assessed by evaluating inhibition of SOS1-mediated nucleotide exchange in KRAS G12D. The SOS1-promoted exchange of fluorescently-labeled GDP (BODIPY-GDP) was monitored by time-resolved fluorescence resonance energy transfer (TR-FRET). Compounds solubilized in DMSO were dispensed as concentration series into 384-well white assay plates. […] The reaction was initiated with the addition of 5 μL of 3 nM recombinant human SOS1 and 300 nM BODIPY-GDP in assay buffer. […] The TR-FRET ratio was determined as the fluorescence at 520 nm divided by the fluorescence at 490 nm multiplied by 10,000. […] The normalized TR-FRET results were plotted against compound concentration, and the data fit to a 4-parameter Hill equation to determine the IC50 values.

GTPase KRas, sequence (P01116 whole entry): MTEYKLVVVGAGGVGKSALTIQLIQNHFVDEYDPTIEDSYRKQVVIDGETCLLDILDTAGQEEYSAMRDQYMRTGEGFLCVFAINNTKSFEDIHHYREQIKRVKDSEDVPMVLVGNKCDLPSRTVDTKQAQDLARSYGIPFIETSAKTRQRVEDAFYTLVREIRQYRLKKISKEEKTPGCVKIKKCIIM

## Cc1cc(N)nc(-c2c(Cl)c3c4c(nc(OCC56CC(CO5)C6)nc4c2F)N([C@H](C)c2cccnc2N)CCO3)c1C(F)(F)F [US20240383915, Example 143]
  IC50: 0.87 nM
